# Measurements as given in patent publication US20100004238A1, “FUSED HETEROCYCLIC COMPOUND” (TAKEDA PHARMACEUTICAL COMPANY LIMITED, priority 2006, published 2010).
# Structures can show the parent of a compound that is named as a salt.
# How the values were obtained:
# [1] = target: T1, HER2 intracellular domain (HER2 kinase) (Homo sapiens, UniProt P04626); assay: Determination of HER2 kinase inhibitory activity; format: biochemical; settings: compound at 1.0 μM, poly-Glu:Tyr (4:1) substrate, [γ-32P]ATP, read-out: inhibitory rate (%) at 1.0 μM
# T1 construct: made in house; host or cells: SF-21 insect cells infected with recombinant baculovirus BAC-HER2
# Experimental: Human HER2 gene was cloned by RT-PCR using total RNA prepared from MCF7 cells as a template. The primer used for RT-PCR was prepared in consideration of the information of nucleotide sequence (Genbank Accession No. M11730) of HER2 gene by adding a nucleotide sequence encoding DYKDDDD peptide and a restriction enzyme recognition sequence to a nucleotide sequence (corresponding to 2176-3918 of Genbank Accession No. M11730 as a base, 676-1255 amino acids of Genbank Accession No. NP_004439 as a protein) encoding the HER2 intracellular domain region such that the protein contains an N-terminal DYKDDDD peptide tag. The primer nucleotide sequence is shown below.
# SF-21 cells were sown at 1×10^6 cells/mL in Sf-900II SFM medium (1 L, Invitrogen) containing 10% fetal bovine serum (trace), 50 mg/L gentamicin (Invitrogen) and 0.1% Pluronic F-68 (Invitrogen), and shaking culture was performed using a 2 L volume Erlenmeyer flask at 27° C., 100 rpm. After culturing for 24 hr, recombinant baculovirus BAC-HER2 (13.4 mL) was added, and the mixture was further cultured for 3 days. The culture medium was centrifuged at 2,000 rpm for 5 min to give virus-infected cells. The infected cells were washed with a phosphate buffered saline (Invitrogen), centrifuged under the same conditions, and the cells were preserved at −80° C. The cryopreserved cells were thawed in ice, suspended in buffer A (50 mM Tris buffer (30 mL, pH 7.4) containing 20% glycerol, 0.15 M NaCl) supplemented with Complete Protease Inhibitor (Boehringer), and ruptured 3 times with a Polytron homogenizer (Kinematica) at 20,000 rpm for 30 sec. The ruptured solution was clarified by centrifugation at 40,000 rpm for 30 min, and filtered with a 0.45 μm filter. The filtrate was passed through a column packed with Anti-FLAG M2 Affinity Gel (4 mL, Sigma-Aldrich) at a flow rate of about 0.5 mL/min. The column was washed with buffer A, and eluted with buffer A containing 100 μg/mL of FLAG peptide. The eluent was concentrated with Vivaspin 20 (Vivascience) having a molecular weight cut off of 30K. The concentrate was purified by gel filtration using Hi Load 16/60 Superdex 200 pg (GE Healthcare Bioscience) equilibrated with buffer A. The fractions containing HER2 intracellular domain were collected and cryopreserved at −80° C.
# HER2 kinase reaction was performed using a 96 well plate. As a buffer for kinase reaction, a buffer having a composition of 50 mM Tris-HCl (pH 7.5), 5 mM MnCl2, 2 mM dithiothreitol, 0.01% Tween-20 was used. The compound of the present invention was dissolved in dimethyl sulfoxide (DMSO), and diluted with the kinase reaction buffer so that DMSO concentration would be 0.1% during kinase reaction. This compound solution (10 μL) was mixed with a kinase reaction buffer […] containing HER2 intracellular domain (0.625 μg/mL) obtained in Experimental Example 1B and polypeptide substrate poly-Glu:Tyr (4:1) (Sigma Ltd., 12.5 μg/mL), and the mixture was stood at room temperature for 5 min. Then, a kinase reaction buffer (20 μL) containing 125 μM ATP and 45 μCi/mL [γ-^32P]ATP was added, and the kinase reaction was initiated with 50 μL of the final reaction mixture. A kinase reaction was performed at room temperature for 10 min, and the kinase reaction was quenched by addition of 20% TCA solution (50 μL). The mixture after completion of the reaction was stood at room temperature for 30 min, and acid insoluble fractions in the mixture after completion of the reaction were collected in a 96 well GF/C filter plate (PerkinElmer) using a cell harvester (PerkinElmer). Thereafter, the filter containing the acid insoluble fractions was washed with 3% phosphoric acid solution. After washing, the filter plate was dried at 45° C. for 60 min, and 25 μL of MicroScinti 0 (PerkinElmer) was added. The radioactivity was measured using TopCount (PerkinElmer). HER2 kinase inhibitory rate (%) of the test compound was calculated by the following formula: […]
# [2] = tested on: human breast cancer cell BT-474; assay: Inhibitory action on breast cancer cell BT-474 proliferation in vitro; format: cell-based; settings: 120 h, BT-474 cells, cultured for 5 days with compound, SRB protein content
# Experimental: A suspension of human breast cancer cell BT-474 (100 μl (6,000 cells)) were plated in a 96-well microplate and cultured in an incubator (37° C., 5% carbon dioxide). On the following day, 100 μl of a solution of each test compound previously diluted serially in 2-fold, was added, and the cells were cultured for 5 days. After the culture medium containing the test compound was removed, the cells were washed and fixed with 50% trichloroacetic acid, after which a 0.4% (w/v) SRB dye solution (dissolved in 1% acetic acid) was added to stain as well as fix the cell protein (Skehan et al., Journal of the National Cancer Institute, Vol. 82, pp. 1107-1112, 1990). After washing with a 1% acetic acid solution, 100 μl of extract solution (10 mM, Tris buffer) was added to extract the dye and the absorbance was measured at a wavelength of 550 nm to quantify the amount of cells as protein content. Taking as 100% the protein content for the control group, which received no test compound solution, the ratio of the residual protein content for each treatment group was determined, and the compound concentration required to achieve 50% suppression of the residual cell content relative to the control (IC50 value) was calculated.
# T1 sequence (P04626 676-1255): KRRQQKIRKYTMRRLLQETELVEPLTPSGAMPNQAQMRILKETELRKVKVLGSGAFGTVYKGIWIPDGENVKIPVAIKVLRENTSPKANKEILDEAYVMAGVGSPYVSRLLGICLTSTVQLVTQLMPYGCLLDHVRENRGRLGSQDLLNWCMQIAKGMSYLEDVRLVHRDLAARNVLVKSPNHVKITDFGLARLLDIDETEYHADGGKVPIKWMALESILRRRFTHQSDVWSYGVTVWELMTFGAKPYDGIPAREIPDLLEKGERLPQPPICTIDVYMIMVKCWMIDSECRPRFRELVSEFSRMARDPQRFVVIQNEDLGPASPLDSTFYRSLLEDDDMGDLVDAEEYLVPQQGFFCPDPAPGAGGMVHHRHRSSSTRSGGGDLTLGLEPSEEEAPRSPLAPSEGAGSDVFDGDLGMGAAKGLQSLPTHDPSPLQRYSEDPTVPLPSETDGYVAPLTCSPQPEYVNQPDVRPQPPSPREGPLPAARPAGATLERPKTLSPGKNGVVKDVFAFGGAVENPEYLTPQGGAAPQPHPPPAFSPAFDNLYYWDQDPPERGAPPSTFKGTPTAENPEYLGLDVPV
SMILES,inhibition at 1 µM [1] [%],IC50 [2] [nM]
"CC(C)(CO)C(=O)NCCn1ccc2ncnc(Nc3ccc(Oc4ccn5ccnc5c4)c(Cl)c3)c21 [Example 164, N-[2-(4-{[3-chloro-4-(imidazo[1,2-a]pyridin-7-yloxy)phenyl]amino}-5H-pyrrolo[3,2-d]pyrimidin-5-yl)ethyl]-3-hydroxy-2,2-dimethylpropanamide]",100,
"OCCn1ccc2ncnc(Nc3ccc(Oc4cccc5[nH]ncc45)c(Cl)c3)c21 [Example 95, 2-(4-{[3-chloro-4-(1H-indazol-4-yloxy)phenyl]amino}-5H-pyrrolo[3,2-d]pyrimidin-5-yl)ethanol]",100,< 100
"CC(C)(CO)C(=O)NCCn1ccc2ncnc(Nc3ccc(Oc4ccn5ncnc5c4)c(Cl)c3)c21 [Example 166, N-[2-(4-{[3-chloro-4-([1,2,4]triazolo[1,5-a]pyridin-7-yloxy)phenyl]amino}-5H-pyrrolo[3,2-d]pyrimidin-5-yl)ethyl]-3-hydroxy-2,2-dimethylpropanamide]",,< 100
"CC(C)(C)NC(=O)c1cccc(Oc2ccc(Nc3ncnc4ccn(CCO)c34)cc2Cl)n1 [Example 29, N-(tert-butyl)-6-(2-chloro-4-{[5-(2-hydroxyethyl)-5H-pyrrolo[3,2-d]pyrimidin-4-yl]amino}phenoxy)pyridine-2-carboxamide]",100,
"CN1C(=O)Cc2c(Oc3ccc(Nc4ncnc5cc(Cl)n(CCO)c45)cc3Cl)cccc21 [Example 170, 4-(2-chloro-4-{[6-chloro-5-(2-hydroxyethyl)-5H-pyrrolo[3,2-d]pyrimidin-4-yl]amino}phenoxy)-1-methyl-1,3-dihydro-2H-indol-2-one]",97,
"CC(C)(CO)C(=O)NCCn1ccc2ncnc(Nc3ccc(Oc4cccc5sccc45)c(Cl)c3)c21 [Example 127, N-[2-(4-{[4-(1-benzothiophen-4-yloxy)-3-chlorophenyl]amino}-5H-pyrrolo[3,2-d]pyrimidin-5-yl)ethyl]-3-hydroxy-2,2-dimethylpropanamide tosylate]",99,
"Cn1ccc2ncnc(Nc3ccc(Oc4cccc5[nH]ncc45)c(Cl)c3)c21 [Example 86, N-[3-chloro-4-(1H-indazol-4-yloxy)phenyl]-5-methyl-5H-pyrrolo[3,2-d]pyrimidin-4-amine]",,< 100
"OCCn1ccc2ncnc(Nc3ccc(Oc4cccc5sccc45)c(Cl)c3)c21 [Example 83, 2-(4-{[4-(1-benzothiophen-4-yloxy)-3-chlorophenyl]amino}-5H-pyrrolo[3,2-d]pyrimidin-5-yl)ethanol]",99,
"OCCn1ccc2ncnc(Nc3ccc(Oc4cccc5[nH]ccc45)c(Cl)c3)c21 [Example 10, 2-(4-{[3-chloro-4-(1H-indol-4-yloxy)phenyl]amino}-5H-pyrrolo[3,2-d]pyrimidin-5-yl)ethanol]",99,< 100
"O=C1Cc2c(cccc2Oc2ccc(Nc3ncnc4ccn(CCO)c34)cc2Cl)N1 [Example 28, 4-(2-chloro-4-{[5-(2-hydroxyethyl)-5H-pyrrolo[3,2-d]pyrimidin-4-yl]amino}phenoxy)-1,3-dihydro-2H-indol-2-one]",100,< 100
"CC(C)(CO)C(=O)NCCn1ccc2ncnc(Nc3ccc(Oc4cccc5sccc45)c(Cl)c3)c21 [Example 114, N-[2-(4-{[4-(1-benzothiophen-4-yloxy)-3-chlorophenyl]amino}-5H-pyrrolo[3,2-d]pyrimidin-5-yl)ethyl]-3-hydroxy-2,2-dimethylpropanamide]",,< 100
"CC(C)(C)NC(=O)c1cncc(Oc2ccc(Nc3ncnc4ccn(CCO)c34)cc2Cl)c1 [Example 26, N-(tert-butyl)-5-(2-chloro-4-{[5-(2-hydroxyethyl)-5H-pyrrolo[3,2-d]pyrimidin-4-yl]amino}phenoxy)nicotinamide]",100,< 100
"CC(C)(O)CC(=O)NCCn1ccc2ncnc(Nc3ccc(Oc4ccc5ccnn5c4)c(Cl)c3)c21 [Example 147, N-[2-(4-{[3-chloro-4-(pyrazolo[1,5-a]pyridin-6-yloxy)phenyl]amino}-5H-pyrrolo[3,2-d]pyrimidin-5-yl)ethyl]-3-hydroxy-3-methylbutanamide hydrochloride]",,< 100
"CC(C)(CO)C(=O)NCCn1ccc2ncnc(Nc3ccc(Oc4ccc5ccnn5c4)c(Cl)c3)c21 [Example 159, N-[2-(4-{[3-chloro-4-(pyrazolo[1,5-a]pyridin-6-yloxy)phenyl]amino}-5H-pyrrolo[3,2-d]pyrimidin-5-yl)ethyl]-3-hydroxy-2,2-dimethylpropanamide methanesulfonate]",100,
